Source: the OligoGym collection
Values joined by “and” are separate entries in the source; they are usually repeats but may differ in a detail not shown here. Equal entries are not always repeated. After the bases stand the sugars from the 5' end (letter, count) and the backbone: PS all phosphorothioate, else s phosphorothioate and o phosphodiester by linkage. Methylation of C is not given here. l = locked nucleic acid (LNA); d = 2'-deoxy (DNA)

Key:
[1] = target: MYH7; conditions: ASO, CC-2580, 5 µM
[2] = target: ANGPTL2; conditions: ASO

| Sequence | target mRNA inhibition [1] | target mRNA inhibition ([2]; 5 µM) | target mRNA inhibition ([2]; 25 µM) |
| --- | --- | --- | --- |
| CAGCTTGGCGATGATCT (sugars l1 d2 l1 d11 l2, PS) | 27% and 2% |  |  |
| CAGCTTGGCGATGATCT (sugars l2 d9 l1 d3 l2, PS) | 60% and 37% |  |  |
| CAGCTTGGCGATGATCT (sugars l3 d2 l1 d9 l2, PS) | 75% and 59% |  |  |
| CAGCTTGGCGATGATCT (sugars ldddddddddlldldll, PS) | 47% and 30% |  |  |
| CAGCTTGGCGATGATCT (sugars lddlddddddddldlll, PS) | 48% and 26% |  |  |
| CAGCTTGGCGATGATCT (sugars lddldddddddlddlll, PS) | 3% and -1% |  |  |
| CAGCTTGGCGATGATCT (sugars lddldddddddllddll, PS) | -2% and -12% |  |  |
| CAGCTTGGCGATGATCT (sugars lddlddddddlddllll, PS) | 29% and 23% |  |  |
| CAGCTTGGCGATGATCT (sugars lddlddddddldlddll, PS) | 11% and 15% |  |  |
| CAGCTTGGCGATGATCT (sugars lddlddddddllddlll, PS) | 16% and 14% |  |  |
| CAGCTTGGCGATGATCT (sugars lddlddddddlldldll, PS) | 18% and 5% |  |  |
| CAGCTTGGCGATGATCT (sugars lddlddddlddddddll, PS) | 34% and 17% |  |  |
| CAGCTTGGCGATGATCT (sugars lddlddddlldddddll, PS) | 0% and -24% |  |  |
| CAGCTTGGCGATGATCT (sugars lddldldddddldddll, PS) | 22% and 7% |  |  |
| CAGCTTGGCGATGATCT (sugars lddldldddddldldll, PS) | -1% and -24% |  |  |
| CAGCTTGGCGATGATCT (sugars lddlldddddddlldll, PS) | 38% and 22% |  |  |
| CAGCTTGGCGATGATCT (sugars lddlldddddlldldll, PS) | 22% and 14% |  |  |
| CAGCTTGGCGATGATCT (sugars lddlldddlldddddll, PS) | 36% and 19% |  |  |
| CAGCTTGGCGATGATCT (sugars lddllddlddddddlll, PS) | 15% and -9% |  |  |
| CAGCTTGGCGATGATCT (sugars ldldldddddddlddll, PS) | 21% and 3% |  |  |
| CAGCTTGGCGATGATCT (sugars ldldldldlddddddll, PS) | -17% and -15% |  |  |
| CAGCTTGGCGATGATCT (sugars ldldllddddddlddll, PS) | 31% and 17% |  |  |
| CAGCTTGGCGATGATCT (sugars ldlldddddddldddll, PS) | 38% and 20% |  |  |

| Sequence | target mRNA inhibition [1] | target mRNA inhibition ([2]; 5 µM) | target mRNA inhibition ([2]; 25 µM) |
| --- | --- | --- | --- |
| CAGCTTGGCGATGATCT (sugars llddddddddlddldll, PS) | 37% and 33% |  |  |
| CAGCTTGGCGATGATCT (sugars lldddddddllddldll, PS) | 17% and 3% |  |  |
| CAGCTTGGCGATGATCT (sugars lldddddldddldldll, PS) | 20% and 15% |  |  |
| CAGCTTGGCGATGATCT (sugars lldlddddddlldddll, PS) | 24% and 13% |  |  |
| CAGCTTGGCGATGATCT (sugars lldllddddddldddll, PS) | 45% and 31% |  |  |
| CAGCTTGGCGATGATCT (sugars lllddlddddddlddll, PS) | 25% and 0% |  |  |
| CCAGTTCCTGAAGAAGTTA (sugars l1 d15 l3, PS) |  | 27.8% | 30.1% |
| CCATTTTGAGATTCCCC (sugars l1 d14 l2, PS) |  | 26.4% | 11.8% |
| CCTGGTAAAATCTTACA (sugars l3 d11 l3, PS) |  | 37.4% | 48.2% |
| CTAGATTTCTTTCAGTTTG (sugars l2 d14 l3, PS) |  | 62.7% and 67.4% | 67.5% and 77.3% |
| CTAGGCACTCAATCCCA (sugars l1 d14 l2, PS) |  | 21.9% | 31.5% |
| CTGGTTGATGATGCGGTTG (sugars l1 d16 l2, PS) |  | 52.7% | 60.5% |
| CTTGGCAATGATCTCATCC (sugars l2 d1 l1 d11 l4, PS) | 81% and 60% |  |  |
| CTTGGCAATGATCTCATCC (sugars l2 d10 l2 d2 l3, PS) | 74% and 49% |  |  |
| CTTGGCAATGATCTCATCC (sugars l3 d13 l3, PS) | 71% and 46% |  |  |
| CTTGGCAATGATCTCATCC (sugars lddddddddlddddlldll, PS) | 45% and 31% |  |  |
| CTTGGCAATGATCTCATCC (sugars ldddddddlddldldldll, PS) | 37% and 12% |  |  |
| CTTGGCAATGATCTCATCC (sugars ldddddddldlldldldll, PS) | -7% and -17% |  |  |
| CTTGGCAATGATCTCATCC (sugars lddddddlddddlddddll, PS) | 41% and 19% |  |  |
| CTTGGCAATGATCTCATCC (sugars lddddddlddlddldldll, PS) | 6% and -16% |  |  |
| CTTGGCAATGATCTCATCC (sugars lddddddlddldlddddll, PS) | 45% and 29% |  |  |
| CTTGGCAATGATCTCATCC (sugars lddddddlddlldldldll, PS) | 18% and -7% |  |  |
| CTTGGCAATGATCTCATCC (sugars ldddddlddlddlddldll, PS) | -6% and -21% |  |  |

| Sequence | target mRNA inhibition [1] | target mRNA inhibition ([2]; 5 µM) | target mRNA inhibition ([2]; 25 µM) |
| --- | --- | --- | --- |
| CTTGGCAATGATCTCATCC (sugars ldddddllddddlddldll, PS) | 24% and 0% |  |  |
| CTTGGCAATGATCTCATCC (sugars ldddddllddddldlddll, PS) | 67% and 52% |  |  |
| CTTGGCAATGATCTCATCC (sugars ldddddllldddddlddll, PS) | 29% and 20% |  |  |
| CTTGGCAATGATCTCATCC (sugars ldddldddddddlddldll, PS) | 22% and 3% |  |  |
| CTTGGCAATGATCTCATCC (sugars lddldddddddldllddll, PS) | 56% and 39% |  |  |
| CTTGGCAATGATCTCATCC (sugars ldldlddddddlddlddll, PS) | -4% and -29% |  |  |
| CTTGGCAATGATCTCATCC (sugars lldddddddlddddldlll, PS) | 67% and 43% |  |  |
| CTTGGCAATGATCTCATCC (sugars lldddddddlddlddldll, PS) | 59% and 36% |  |  |
| CTTGGCAATGATCTCATCC (sugars llddlddddddldldldll, PS) | -25% and -43% |  |  |
| CTTGGCAATGATCTCATCC (sugars lldlddddddddlddldll, PS) | 38% and 23% |  |  |
| GAAATGTTATCTAATACT (sugars l4 d10 l4, PS) |  | 34.5% | 49% |
| GAACTCAGCCCAGTAGAC (sugars l1 d15 l2, PS) |  | -4.7% | 17.5% |
| GAATTTTCTTTACCTTAG (sugars l4 d11 l3, PS) |  | 41.4% | 56% |
| GAGTTTGGATCATAGAA (sugars l4 d10 l3, PS) |  | 41.2% | 65.8% |
| GATGATGCGGTTGTAGG (sugars l2 d13 l2, PS) |  | 67% | 78% |
| GATGATGCGGTTGTAGGT (sugars l1 d15 l2, PS) |  | 62.4% | 73% |
| GCAGCTCATTGTTGAGCA (sugars l1 d15 l2, PS) |  | -2.7% | -0.5% |
| GCATTCCTCAGACAAATC (sugars l2 d14 l2, PS) |  | 43.6% | 56.9% |
| GCTTGCGGATGATCTC (sugars l2 d12 l2, PS) |  | 38% | 70.9% |
| GTAGGTAGGCGAGGAG (sugars l2 d12 l2, PS) |  | 16.3% | -18.7% |
| GTGCCAAATCCTAGACA (sugars l2 d13 l2, PS) |  | 54.5% | 68.2% |
| GTGCTCTGTGAAGATTA (sugars l2 d11 l4, PS) |  | 66.6% | 81.3% |
| GTTCTCCAGGGAAGTGTA (sugars l1 d15 l2, PS) |  | 47.4% | 57.7% |

| Sequence | target mRNA inhibition [1] | target mRNA inhibition ([2]; 5 µM) | target mRNA inhibition ([2]; 25 µM) |
| --- | --- | --- | --- |
| GTTTCTGACAAAGCCCG (sugars l1 d13 l3, PS) |  | 79.6% | 84.3% |
| TAGCAGATGGGGCACAA (sugars l1 d12 l4, PS) |  | 22.9% | 12.4% |
| TCAGCTTGGCGATGATCT (sugars l2 d5 l1 d6 l4, PS) | 72% and 49% |  |  |
| TCAGCTTGGCGATGATCT (sugars l2 d8 l1 d3 l4, PS) | 48% and 46% |  |  |
| TCAGCTTGGCGATGATCT (sugars l2 d8 l1 d4 l3, PS) | 39% and 27% |  |  |
| TCAGCTTGGCGATGATCT (sugars l2 d10 l1 d1 l4, PS) | 46% and 45% |  |  |
| TCAGCTTGGCGATGATCT (sugars l2 d10 l1 d2 l3, PS) | 67% and 55% |  |  |
| TCAGCTTGGCGATGATCT (sugars l2 d13 l3, PS) | 64% and 40% |  |  |
| TCAGCTTGGCGATGATCT (sugars lddldddddddldlddll, PS) | 37% and 32% |  |  |
| TCAGTGGTGAGATGGGTCAC (sugars l1 d17 l2, PS) |  | 29.1% | 40.7% |
| TCTCCTAAGAGCAAAGCT (sugars l2 d14 l2, PS) |  | 37.2% | 52.9% |
| TGAATGGAAGATACAAAACT (sugars l4 d12 l4, PS) |  | 11.6% | 44.7% |
| TGATGATGCGGTTGTA (sugars l3 d11 l2, PS) |  | 73.8% | 85.9% |
| TGATGATGCGGTTGTAGGT (sugars l1 d16 l2, PS) |  | 45.5% | 63.9% |
| TGATGTGGTGAGACAGTA (sugars l2 d14 l2, PS) |  | 53.6% | 70.5% |
| TGGTTGATGATGCGGTT (sugars l2 d13 l2, PS) |  | 81.7% | 87.5% |
| TTACATGCCGCCAGAGGAA (sugars l1 d16 l2, PS) |  | 45.6% | 52.3% |
| TTATAAAGACAAGAGCCT (sugars l3 d12 l3, PS) |  | 34.5% | 47.3% |
| TTATAGGGTGGAATAAA (sugars l4 d9 l4, PS) |  | 18.2% | 26.9% |
| TTCTCCTAGAAAGCAGT (sugars l1 d12 l4, PS) |  | 43% | 61.9% |
| TTCTGGTAGTGGGCACAG (sugars l1 d15 l2, PS) |  | 36.8% | 37.1% |
| TTGATGATGCGGTTGTAGG (sugars l1 d16 l2, PS) |  | 44.8% | 55.9% |
